Counter-ions that a name gives are not always drawn. Like-named read-outs stand apart in the source and are kept apart here.
Molecular target: T1, human p38 kinase alpha (Homo sapiens, UniProt Q16539)
T1 construct: The coding region of the human p38α cDNA was obtained by PCR-amplification from RNA isolated from the human monocyte cell line THP.1; made in house; host or cells: E. coli DH10B
Test: In vitro p38 kinase inhibition analysis (PHAS-I 32P-ATP or EGFRP 33P-ATP format)
Type: biochemical
Conditions: read-out: p38α Kinase Inhibition (IC50 in μM)
Description: The ability of compounds to inhibit human p38 kinase alpha was evaluated using one of two in vitro assay methods. In the first method, activated human p38 kinase alpha phosphorylates a biotinylated substrate, PHAS-I (phosphorylated heat and acid stable protein-insulin inducible), in the presence of gamma ^32P-ATP (^32P-ATP). PHAS-I was biotinylated before the assay, and provided a means of capturing the substrate which was phosphorylated during the assay. p38 Kinase was activated by MKK6. Compounds were tested in 10 fold serial dilutions over the range of 100 μM to 0.001 μM using 1% DMSO. Each concentration of inhibitor was tested in triplicate.
All reactions were carried out in 96 well polypropylene plates. Each reaction well contained 25 mM HEPES pH 7.5, 10 mM magnesium acetate, and 50 μM unlabeled ATP. […] Activated human p38 kinase alpha was used at 1 μg per 50 μl reaction volume, representing a final concentration of 0.3 μM. Gamma ^32P-ATP was used to follow the phosphorylation of PHAS-I. ^32P-ATP has a specific activity of 3000 Ci/mmol, and was used at 1.2 μCi per 50 μl reaction volume. The reaction proceeded either for one hr or overnight at 30° C.
Following incubation, 20 μl of reaction mixture was transferred to a high capacity streptavidin coated filter plate (SAM-streptavidin-matrix, Promega) prewetted with phosphate buffered saline. The transferred reaction mix was allowed to contact the streptavidin membrane of the Promega plate for 1-2 min. […] Filter plates were air dried and 20 μl of scintillant was added. The plates were sealed and counted.
A second assay format was alternatively employed. This assay is based on p38 kinase alpha being induced phosphorylation of EGFRP (epidermal growth factor receptor peptide, a 21 mer) in the presence of ^33P-ATP. Compounds were tested in 10 fold serial dilutions over the range of 100 μM to 0.001 μM in 10% DMSO. Each concentration of inhibitor was tested in triplicate. Compounds were evaluated in 50 μl reaction volumes in the presence of 25 mM HEPES pH 7.5, 10 mM magnesium acetate, 4% glycerol, 0.4% bovine serum albumin, 0.4 mM DTT, 50 μM unlabeled ATP, 25 μg EGFRP (200 μM), and 0.05 uCi gamma ^33P-ATP. Reactions were initiated by addition of 0.09 μg of activated, purified human GST-p38 kinase alpha. Activation was carried out using GST-MKK6 (5:1,p38:MKK6) for one hr at 30° C. in the presence of 50 μM ATP. Following incubation for 60 min at room temperature, the reaction was stopped by addition of 150 μl of AG 1×8 resin in 900 mM sodium formate buffer, pH 3.0 (1 volume resin to 2 volumes buffer). The mixture was mixed three times with pipetting. Afterward, the resin was allowed to settle. A total of 50 μl of clarified solution head volume was transferred from the reaction wells to Microlite-2 plates. 150 μl of Microscint 40 was then added to each well of the Microlite plate, and the plate was sealed, mixed, and counted.

[1] = Table 1, compounds of Examples 1-28, one of two in vitro assay methods
[2] = Table 1, compounds of Examples 1-28, one of two in vitro assay methods, Trifluoroacetate
[3] = Table 1, compounds of Examples 1-28, one of two in vitro assay methods, Hydrochloride Hydrate
[4] = Table 1, compounds of Examples 1-28, one of two in vitro assay methods, Phosphate Dihydrate
[5] = Table 2, additional pyrazole compounds, Examples 56-169

T1 sequence (Q16539 whole entry): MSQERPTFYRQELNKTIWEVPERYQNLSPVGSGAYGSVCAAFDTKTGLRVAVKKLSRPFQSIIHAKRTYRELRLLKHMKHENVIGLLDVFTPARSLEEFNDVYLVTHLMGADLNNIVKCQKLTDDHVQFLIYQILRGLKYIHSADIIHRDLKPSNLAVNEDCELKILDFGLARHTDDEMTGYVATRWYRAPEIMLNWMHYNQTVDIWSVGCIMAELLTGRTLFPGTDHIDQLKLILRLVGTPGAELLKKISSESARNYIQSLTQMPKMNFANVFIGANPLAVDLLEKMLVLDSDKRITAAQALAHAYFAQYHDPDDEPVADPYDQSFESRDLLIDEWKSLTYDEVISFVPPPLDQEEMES

IC50 [1]	SMILES	further results
0.289 µM	O[C@H]1CC[C@H](c2[nH]nc(-c3ccc(Cl)cc3)c2-c2ccncn2)CC1 [Example 6, 4-[3-(4-chlorophenyl)-4-pyrimidin-4-yl-1H-pyrazol-5-yl]-trans-cyclohexanol]	–
0.0926 µM	CC(C)(O)[C@H]1CC[C@H](c2[nH]nc(-c3ccc(Cl)cc3)c2-c2ccncn2)CC1 [Example 16, 2-{4-[3-(4-chlorophenyl)-4-pyrimidin-4-yl-1H-pyrazol-5-yl]cyclohexyl)propan-2-ol]	–
0.0189 µM	OC1CCCC1N1CCC(c2[nH]nc(-c3ccc(Cl)cc3)c2-c2ccncn2)CC1 (stereo not shown) [Example 17, 2-{4-[3-(4-chlorophenyl)-4-pyrimidin-4-yl-1H-pyrazol-5-yl]piperidin-1-yl}cyclopentanol Fumarate]	–
0.0106 µM	CC(c1ccc(C(C)(C)O)cc1)N1CCC(c2[nH]nc(-c3ccc(Cl)cc3)c2-c2ccncn2)CC1 (stereo not shown) [Example 18, 2-[4-(1-{4-[3-(4-chlorophenyl)-4-pyrimidin-4-yl-1H-pyrazol-5-yl]piperidin-1-yl}ethyl)phenyl]propan-2-ol]	–
0.102 µM	Fc1ccc(CN2CCC(c3[nH]nc(-c4ccc(Cl)cc4)c3-c3ccncn3)CC2)cc1 [Example 19, 4-{3-(4-chlorophenyl)-5-[1-(4-fluorobenzyl)piperidin-4-yl]-1H-pyrazol-4-yl}pyrimidine]	–
0.0118 µM	CN(C)CC(=O)OCC(=O)N1CCC(c2[nH]nc(-c3ccc(Cl)cc3)c2-c2ccncn2)CC1 [Example 25, 2-{4-[3-(4-chlorophenyl)-4-pyrimidin-4-yl-1H-pyrazol-5-yl]piperidin-1-yl}-2-oxoethyl N,N-dimethylglycinate Hydrochloride]	–

Continued, compound first:

SMILES	IC50 [1]	further results
C[C@@H](N[C@H]1CC[C@H](c2[nH]nc(-c3ccc(Cl)cc3)c2-c2ccncn2)CC1)c1ccccc1 [Example 1, 4-[3-(4-chlorophenyl)-4-pyrimidin-4-yl-1H-pyrazol-5-yl]-N-[(1R)-1-phenylethyl]-trans-cyclohexanamine]	0.0314 µM	–
C[C@@H](N[C@H]1CC[C@H](c2[nH]nc(-c3ccc(Cl)cc3)c2-c2ccncn2)CC1)c1ccccc1 [Example 2, 4-[3-(4-chlorophenyl)-4-pyrimidin-4-yl-1H-pyrazol-5-yl]-N-[(1R)-1-phenylethyl]-trans-cyclohexanamine 4-methylbenzenesulfonate]	–	IC50 (Table 1, compounds of Examples 1-28, one of two in vitro assay methods, 4-methylbenzenesulfonate): 0.0279 µM
Clc1ccc(-c2n[nH]c([C@H]3CC[C@H](NC4CCCCC4)CC3)c2-c2ccncn2)cc1 [Example 3, 4-[3-(4-chlorophenyl)-4-pyrimidin-4-yl-1H-pyrazol-5-yl]-N-cyclohexyltrans-cyclohexanamine]	0.0452 µM	–
Clc1ccc(-c2n[nH]c([C@H]3CC[C@H](NC4CCCCC4)CC3)c2-c2ccncn2)cc1 [Example 4]	0.0379 µM	–
C[C@@H](N[C@H]1CC[C@H](c2[nH]nc(-c3ccc(Cl)cc3)c2-c2ccncn2)CC1)c1ccc(F)cc1 [Example 5, 4-[3-(4-chlorophenyl)-4-pyrimidin-4-yl-1H-pyrazol-5-yl]-N-[(1R)-1-(4-fluorophenyl)ethyl]-trans-cyclohexanamine]	0.0232 µM	–
Clc1ccc(-c2n[nH]c([C@H]3CC[C@H](N4CCCCC4)CC3)c2-c2ccncn2)cc1 [Example 7, 4-[3-(4-chlorophenyl)-5-(4-piperidin-1-yl-cyclohexyl)-1H-pyrazol-4-yl]pyrimidine Trifluoroacetate]	–	IC50 [2]: 0.0238 µM
Clc1ccc(-c2n[nH]c([C@H]3CC[C@H](N4CCCCC4)CC3)c2-c2ccncn2)cc1 [Example 8, 4-[3-(4-chlorophenyl)-5-(4-piperidin-1-ylcyclohexyl)-1H-pyrazol-4-yl]pyrimidine Hydrochloride Hydrate]	–	IC50 [3]: 0.0582 µM
OC[C@H]1CCCN1[C@H]1CC[C@H](c2[nH]nc(-c3ccc(Cl)cc3)c2-c2ccncn2)CC1 [Example 9, ((2R)-1-{4-[3-(4-chlorophenyl)-4-pyrimidin-4-yl-1H-pyrazol-5-yl]cyclohexyl)pyrrolidin-2-yl)methanol Trifluoroacetate]	–	IC50 [2]: 0.0285 µM
OC[C@H]1CCCN1[C@H]1CC[C@H](c2[nH]nc(-c3ccc(Cl)cc3)c2-c2ccncn2)CC1 [Example 10, ((2R)-1-{4-[3-(4-chlorophenyl)-4-pyrimidin-4-yl-1H-pyrazol-5yl]cyclohexyl}pyrrolidin-2-yl)methanol Hydrochloride Hydrate]	–	IC50 [3]: 0.0354 µM
CN(CCO)[C@H]1CC[C@H](c2[nH]nc(-c3ccc(Cl)cc3)c2-c2ccncn2)CC1 [Example 11, 2-[{4-[3-(4-chlorophenyl)-4-pyrimidin-4-yl-1 H-pyrazol-5-yl]cyclohexyl)(methyl)amino]ethanol Trifluoroacetate Hydrate]	–	IC50 (Table 1, compounds of Examples 1-28, one of two in vitro assay methods, Trifluoroacetate Hydrate): 0.0271 µM
CN(CCO)[C@H]1CC[C@H](c2[nH]nc(-c3ccc(Cl)cc3)c2-c2ccncn2)CC1 [Example 12, 2-[{4-[3-(4-chlorophenyl)-4-pyrimidin-4-yl-1H-pyrazol-5-yl]cyclohexyl)(methyl)amino]ethanol Hydrochloride Hydrate]	–	IC50 [3]: 0.0379 µM
CC(C)N[C@H]1CC[C@H](c2[nH]nc(-c3ccc(F)c(F)c3)c2-c2ccncn2)CC1 [Example 13, 4-[3-(3,4-difluorophenyl)-4-pyrimidin-4-yl-1H-pyrazol-5-yl]-N-isopropylcyclohexanamine]	0.115 µM	–
CC(C)N[C@H]1CC[C@H](c2[nH]nc(-c3ccc(F)c(C(F)(F)F)c3)c2-c2ccncn2)CC1 [Example 14, 4-{3-[4-fluoro-3-(trifluoromethyl)phenyl]-4-pyrimidin-4-yl-1H-pyrazol-5-yl}-N-isopropylcyclohexanamine]	0.0723 µM	–
O=C(COP(=O)(O)O)N1CCC(c2[nH]nc(-c3ccc(Cl)cc3)c2-c2ccncn2)CC1 [Example 22, 2-{4-[3-(4-chlorophenyl)-4-pyrimidin-4-yl-1H-pyrazol-5-yl]piperidin-1-yl}-2-oxoethyl Dihydrogen Phosphate]	0.00607 µM	–
O=C(COP(=O)(O)O)N1CCC(c2[nH]nc(-c3ccc(Cl)cc3)c2-c2ccncn2)CC1 [Example 23, mono-sodium 2-{4-[3-(4-chlorophenyl)-4-pyrimidin-4-yl-1H-pyrazol-5-yl]piperidin-1-yl}-2-oxoethyl Dihydrogen Phosphate Dihydrate]	–	IC50 [4]: 0.0681 µM
O=C(COP(=O)(O)O)N1CCC(c2[nH]nc(-c3ccc(Cl)cc3)c2-c2ccncn2)CC1 [Example 24, di-sodium 2-{4-[3-(4-chlorophenyl)-4-pyrimidin-4-yl-1H-pyrazol-5-yl]piperidin-1-yl}-2-oxoethyl Dihydrogen Phosphate Dihydrate]	–	IC50 [4]: 0.0608 µM
Fc1cc(Cl)ccc1-c1n[nH]c(C2CCNCC2)c1-c1ccncn1 [Example 26, 4-[3-(4-chloro-2-fluorophenyl)-5-piperidin-4-yl-1H-pyrazol-4-yl]pyrimidine]	0.0641 µM	–
O=C(CO)N1CCC(c2[nH]nc(-c3ccc(Cl)cc3F)c2-c2ccncn2)CC1 [Example 27, 2-{4-[3-(4-chloro-2-fluorophenyl)-4-pyrimidin-4-yl-1H-pyrazol-5-yl]piperidin-1-yl}-2-oxoethanol]	0.209 µM	–
CC(C)C(N)C(=O)OCC(=O)N1CCC(c2[nH]nc(-c3ccc(Cl)cc3)c2-c2ccncn2)CC1 (stereo not shown) [Example 56]	–	IC50 [5]: 0.0402 µM
CC(C)C(N)C(=O)OCC(=O)N1CCC(c2[nH]nc(-c3ccc(Cl)cc3)c2-c2ccncn2)CC1 (stereo not shown) [Example 57]	–	IC50 [5]: 0.0285 µM
CCN1CCN([C@H]2CC[C@H](c3[nH]nc(-c4ccc(Cl)cc4)c3-c3ccncn3)CC2)CC1 [Example 58]	–	IC50 [5]: 0.0649 µM
O=C(CO)N1CCC(c2[nH]nc(-c3ccc(Cl)cc3)c2-c2ccnc(O)n2)CC1 [Example 59]	–	IC50 [5]: 15.8 µM

Source: patent US20040082551A1, “Novel pyrazoles and their use as p38 kinase inhibitors” (priority 2002, published 2004)
